What was measured:
Caco-2 cells = experiment: Caco2 assay (permeability, A-B); format: in vitro ADME; conditions: Papp absorptive direction (A-B), test compound 50 μM, 120 minutes
Protocol: Caco-2 cells are grown at 37° C. in an atmosphere of 5% CO2 in DMEM growth medium supplemented with 10% (v/v) fetal bovine serum, 1% (v/v) nonessential amino acids, penicillin (100 U/mL), and streptomycin (100 μg/mL). Confluent cell monolayers are subcultured every 7 days or 4 days for Caco-2 by treatment with 0.05% trypsin containing […]. Caco-2 cells are seeded in 96-well Transwell plates. The seeding density for Caco-2 cells is 14,000 cells/well. DMEM growth medium is replaced every other day after seeding. Cell monolayers are used for transport assays between 22 and 25 days for Caco-2 cells.
Cell culture medium is removed and replaced with HBSS. To measure the TEER, the HBSS is added into the donor compartment (apical side) and receiver compartment (basolateral side). The TEER is measured by using a REMS Autosampler to ensure the integrity of the cell monolayers. Caco-2 cell monolayers with TEER values≥300 Ω·cm^2 are used for transport experiments. To determine the Papp in the absorptive direction (A-B), solution of test compound (50 μM) in HBSS is added to the donor compartment (apical side), while HBSS solution with 4% BSA is added to the receiver compartment (basolateral side). The apical volume was 0.075 mL, and the basolateral volume is 0.25 mL. The incubation period is 120 minutes at 37° C. in an atmosphere of 5% CO2. At the end of the incubation period, samples from the donor and receiver sides are removed and an equal volume of acetonitrile is added for protein precipitation. The supernatants are collected after centrifugation (3000 rpm, Allegra X-14R Centrifuge from Beckman Coulter, Indianapolis, IN) for LCMS analysis. The permeability value is determined according to the equation: […]
where the flux rate (F, mass/time) is calculated from the slope of cumulative amounts of compound of interest on the receiver side, SA is the surface area of the cell membrane, VD is the donor volume, and MD is the initial amount of the solution in the donor chamber.
The symbol “+” indicates a Caco-2 value of […], “++” indicates a Caco-2 value of >0.5 but ≤1; and “+++” indicates a Caco-2 value of >1. “NA” indicates IC50 not available.

KRAS G12V = KRAS G12V (Homo sapiens, UniProt P01116, G12V); experiment: GDP-GTP exchange assay (bodipy-GDP/GppNHp, SOS1), KRAS G12V; format: biochemical; conditions: KRAS_G12V exchange assay IC50; value for the most potent isomer quoted
Sequence of KRAS G12V (P01116 1-188 isoform P01116-2 G12V): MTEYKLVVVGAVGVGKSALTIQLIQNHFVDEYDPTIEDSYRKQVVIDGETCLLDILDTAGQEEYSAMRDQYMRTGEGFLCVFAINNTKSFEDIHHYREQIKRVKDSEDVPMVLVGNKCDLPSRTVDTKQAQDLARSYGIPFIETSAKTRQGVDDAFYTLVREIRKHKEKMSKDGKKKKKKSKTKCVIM
Protocol: (§1) The inhibitor potency of the exemplified compounds was determined in a fluorescence based guanine nucleotide exchange assay, which measures the exchange of bodipy-GDP (fluorescently labeled GDP) for GppNHp (Non-hydrolyzable GTP analog) to generate the active state of KRAS in the presence of SOS1 (guanine nucleotide exchange factor). Inhibitors were serially diluted in DMSO and a volume of 0.1 μL was transferred to the wells of a black low volume 384-well plate. 5 μL/well volume of bodipy-loaded KRAS G12D diluted to […] in assay buffer (25 mM Hepes pH 7.5, 50 mM NaCl, 10 mM mgCl2 and 0.01% Brij-35) was added to the plate and pre-incubated with inhibitor for 4 h at ambient temperature. Appropriate controls (enzyme with no inhibitor or with a G12D inhibitor) were included on the plate. The exchange was initiated by the addition of a 5 μL/well volume containing 1 mM GppNHp and 300 nM SOS1 in assay buffer. The 10 μL/well reaction concentration of the bodipy-loaded KRAS G12D, GppNHp, and SOS1 were 2.5 nM, 500 uM, and 150 nM, respectively. The reaction plates were incubated at ambient temperature for 2 h, a time estimated for complete GDP-GTP exchange in the absence of inhibitor. For the KRAS G12V mutant, similar guanine nucleotide exchange assays were used with 2.5 nM as final concentration for the bodipy loaded KRAS proteins and 3 h incubation after adding GppNHp-SOS1 mixture. A cyclic peptide described to selectively bind G12D mutant (Sakamoto et al., BBRC 484.3 (2017), 605-611) or internal compounds with confirmed binding were used as positive controls in the assay plates. Fluorescence intensities were measured on a PheraStar plate reader instrument (BMG Labtech) with excitation at 485 nm and emission at 520 nm.
(§2) Either GraphPad prism or Genedata Screener SmartFit was used to analyze the data. The IC50 values were derived by fitting the data to a four parameter logistic equation producing a sigmoidal dose-response curve with a variable Hill coefficient.
(§3) The symbol “t” indicates IC50≤100 nM, “††” indicates IC50>100 nM but ≤1 μM; and “†††” indicates IC50 is >1 μM but ≤5 μM, “††††” indicates IC50 is >5 μM but ≤10 μM. “NA” indicates IC50 not available.

KRAS G12D = KRAS G12D (Homo sapiens, UniProt P01116, G12D); experiment: GDP-GTP exchange assay (bodipy-GDP/GppNHp, SOS1), KRAS G12D; format: biochemical; conditions: KRAS_G12D exchange assay IC50; 4 h pre-incubation; value for the most potent isomer quoted
Sequence of KRAS G12D (P01116 1-188 isoform P01116-2 G12D): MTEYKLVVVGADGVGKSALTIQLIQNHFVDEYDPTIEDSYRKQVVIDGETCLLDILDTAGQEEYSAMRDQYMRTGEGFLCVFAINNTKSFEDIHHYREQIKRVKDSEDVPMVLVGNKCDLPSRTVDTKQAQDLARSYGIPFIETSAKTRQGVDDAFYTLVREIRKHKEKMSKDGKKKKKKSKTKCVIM
Protocol: as §1, §2, §3

SMILES	Caco-2 (Caco-2 cells)	G12V_exchange (KRAS G12V)	G12D_exchange (KRAS G12D)
Cc1nc2c(F)c(-c3cccc(Cl)c3Cl)c(CCC#N)cc2c2c1cc([C@@H](C)N1CCCN(c3ccncc3)C1=O)n2[C@H]1[C@H]2CN[C@@H]1C2 (single isomer, unassigned) [Example 1]	+++ (“+++” indicates a Caco-2 value of >1)	†	†
Cc1nc2c(F)c(-c3cccc(Cl)c3Cl)c(CCC#N)cc2c2c1cc([C@@H](C)N1CCCN(c3ccccc3)C1=O)n2[C@H]1[C@H]2CN[C@@H]1C2 (single isomer, unassigned) [Example 2]	+++ (“+++” indicates a Caco-2 value of >1)	†	†
Cc1nc2c(F)c(-c3cccc(Cl)c3Cl)c(CCC#N)cc2c2c1cc([C@@H](C)N1CCCN(c3ccc(F)cc3)C1=O)n2[C@H]1[C@H]2CN[C@@H]1C2 (single isomer, unassigned) [Example 3]	+++ (“+++” indicates a Caco-2 value of >1)	†	†
Cc1nc2c(F)c(-c3cccc(Cl)c3Cl)c(CCC#N)cc2c2c1cc([C@@H](C)N1CCCN(c3ccccn3)C1=O)n2[C@H]1[C@H]2CN[C@@H]1C2 (single isomer, unassigned) [Example 4]	+ (“+” indicates a Caco-2 value of 50.5)	†	†
Cc1nc2c(F)c(-c3cccc(Cl)c3Cl)c(CCC#N)cc2c2c1cc([C@@H](C)N1CCCN(c3ccncc3F)C1=O)n2[C@H]1[C@H]2CN[C@@H]1C2 (single isomer, unassigned) [Example 5]	+++ (“+++” indicates a Caco-2 value of >1)	†	†
Cc1nc2c(F)c(-c3cccc(Cl)c3Cl)c(CCC#N)cc2c2c1cc([C@@H](C)N1CCCN(c3ccnc(F)c3)C1=O)n2[C@H]1[C@H]2CN[C@@H]1C2 (single isomer, unassigned) [Example 6]	+++ (“+++” indicates a Caco-2 value of >1)	†	†
Cc1nc2c(F)c(-c3cccc(Cl)c3Cl)c(CCC#N)cc2c2c1cc([C@@H](C)N1CCCN(c3ccc(F)cn3)C1=O)n2[C@H]1[C@H]2CN[C@@H]1C2 (single isomer, unassigned) [Example 7]	+++ (“+++” indicates a Caco-2 value of >1)	†	†
CC(O)c1nc2c(F)c(-c3cccc(Cl)c3Cl)c(CCC#N)cc2c2c1cc([C@@H](C)N1CCCN(c3ccncc3)C1=O)n2[C@H]1[C@H]2CN[C@@H]1C2 (single isomer, unassigned) [Example 14]	+ (“+” indicates a Caco-2 value of 50.5)	†	†
Cc1c(Cl)cc(O)cc1-c1c(CCC#N)cc2c(nc(C)c3cc([C@@H](C)N4CCCN(c5ccncc5)C4=O)n([C@H]4[C@H]5CN[C@@H]4C5)c32)c1F [Example 15, 3-(1-((1R,4R,5S)-2-azabicyclo[2.1.1]hexan-5-yl)-7-(3-chloro-5-hydroxy-2-methylphenyl)-6-fluoro-4-methyl-2-((R)-1-(2-oxo-3-(pyridin-4-yl)tetrahydropyrimidin-1(2H)-yl)ethyl)-1H-pyrrolo[3,2-c]quinolin-8-yl)propanenitrile]	+ (“+” indicates a Caco-2 value of 50.5)	†	†
